Results from US20190352341A1, “MODIFIED PEPTIDES AND THEIR USE FOR TREATING SYSTEMIC LUPUS ERYTHEMATOSUS” (IMMUPHARMA FRANCE SA, priority 2018, published 2019).
Numbered stars: 1 amine (or outer) side, 2 acyl side, 3 side chain; on linkers, the order of the positions; unused ones are H or OH. Square brackets hold non-standard residues; d marks the D form. Peptide text beside a SMILES is read from it. ξ: configuration not given here. X1 = CSCC[C@H](NC(=N)[C@H](Cc1c[nH]cn1)N[*:1])C(=O)[*:2]; pS = N[C@@H](COP(=O)(O)O)C(=O)O; Ile(3ξ) = CCC(C)[C@H](N)C(=O)O

Experiments:
[1] = system: SLE patients; assay: Clinical trial in SLE patients (SRI-4 response); type: in vivo, human
Protocol: Human patients with SLE were administered the “standard of care” for SLE+placebo or SEQ ID NO.:1 (serine 10 phosphorylated) (“P140”). The P140 peptide was administered in a solution with mannitol; the placebo was a mannitol solution only. Patients were treated for 52 weeks.
Based on the protocol and the commonly accepted study design, there were two groups of patients: (1) patients receiving P140 plus “Standard of Care” and (2) patients receiving placebo plus “Standard of Care”. “Standard of Care” includes treatment with other drugs such as steroids, anti-malarials, methotrexate etc. No patients were treated just with placebo, but all were receiving other drug treatments. The definition of a “responder” is based on the SLE Responder Index (SRI-4) score, which requires a reduction of at least four points in this score. Therefore, patients who improve by less than four points are counted as non-responders, but also no distinction is made between patients who improve by more than 4 points, all being equal “responders”.
The SRI-4 score comprises criteria from three different internationally validated indices, SELENA-SLE Disease Activity Index (SELENA-SLEDAI), Physician Global Assessment (PGA) and the British Isles Lupus Assessment Group (BILAG) 2004. See Luijten, K. M. et al., Autoimmun Rev. 2012 March; 11(5):326-9.

[2] = biological target: T1, HSC70 protein (Bos taurus, UniProt P19120); assay: Affinity of the peptides for HSC70 protein (BIAcore); type: binding, bovine
T1 construct: purchased Stressgen
T1 sequence (P19120 whole entry): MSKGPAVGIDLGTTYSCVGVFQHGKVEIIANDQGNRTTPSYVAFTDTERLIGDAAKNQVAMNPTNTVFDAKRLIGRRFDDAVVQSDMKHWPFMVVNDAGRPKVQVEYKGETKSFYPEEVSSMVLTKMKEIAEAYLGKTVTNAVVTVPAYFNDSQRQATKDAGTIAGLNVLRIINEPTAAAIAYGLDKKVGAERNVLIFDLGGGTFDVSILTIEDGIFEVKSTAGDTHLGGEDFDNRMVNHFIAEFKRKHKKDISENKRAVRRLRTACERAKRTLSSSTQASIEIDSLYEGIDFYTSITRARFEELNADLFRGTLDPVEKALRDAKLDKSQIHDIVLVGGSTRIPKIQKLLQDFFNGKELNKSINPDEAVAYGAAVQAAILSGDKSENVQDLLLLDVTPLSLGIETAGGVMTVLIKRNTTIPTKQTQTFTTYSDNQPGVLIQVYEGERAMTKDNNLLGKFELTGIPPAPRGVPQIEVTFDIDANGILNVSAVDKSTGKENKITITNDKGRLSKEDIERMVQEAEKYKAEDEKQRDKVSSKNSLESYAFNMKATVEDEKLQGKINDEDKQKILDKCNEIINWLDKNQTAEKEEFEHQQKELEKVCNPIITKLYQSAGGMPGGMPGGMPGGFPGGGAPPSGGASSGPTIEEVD
Protocol: BIAcore 3000 system (Biacore AB) was used to evaluate the binding of P140 peptides to HSC70 protein (Page et al., 2009, and 2011). Sensor chip CMS, surfactant P20, amine coupling kit containing N-hydroxysuccinimide (NHS) and N-ethyl-N′-dimethylaminopropyl carbodiimide (EDC), 2-(2-pyridinyldithio)ethaneamine (PDEA) and ethanolamine were from Biacore AB. Biosensor assays were performed with HBS-EP buffer as running buffer (10 mM HEPES, 150 mM NaCl, 3 mM EDTA, 0.005% surfactant P20, pH 7.4). The compounds were diluted in the running buffer. The sensor chip surface was regenerated after each experiment by injecting 10 μL of 10 mM HCl. Recombinant bovine HSC70 (Stressgen) was immobilized on flow cells of a CM5 sensor chip through its thiol groups using 35 μL PDEA in 50 mM borate buffer, pH 8.3 on the NHS/EDC-activated matrix. Then, 35 μL of HSC70 (100 μg/mL in formate buffer, pH 4.3) were injected until a response of 13,000 response units (RU) corresponding to 13 ng/mm^2 of HSC70 was immobilized. Twenty μL of a 50 mM cysteine/1 M NaCl solution was used to saturate unoccupied sites on the chip. The direct binding measurement of P140 peptides to HSC70 was carried out at 25° C. with a constant flow rate of 20 μL/min. P140 peptide and analogues were injected in the flux at different concentrations for 3 min, followed by a dissociation phase of 3 min. The kinetic parameters were calculated using the BIAeval 3.1 software on a personal computer. Analysis was performed using the simple 1:1 Langmuir binding model. The specific binding profiles were obtained after subtracting the response signal from the control empty channel and from blank-buffer injection. The fitting to each model was judged by the χ^2 value and randomness of residue distribution compared to the theoretical model.

[3] = system: CD4+ T splenocytes; assay: Collagen-induced arthritis (CIA) mouse model, ex vivo T splenocyte proliferation; type: in vivo; conditions: DBA/1 CIA mice, peptide i.v. day −1, +7, +14, +20; 100 μg CII/mL, CFSE assay by FACS
Protocol: Next, P140 peptide was administered in a model of mice that develop a RA-like disease (we anticipated to use this mouse model as a negative control of MRL/lpr-lupus prone mice). This model, called collagen-induced arthritis (CIA) mouse model, is the most commonly studied autoimmune model of RA. In this model, autoimmune arthritis is induced by immunizing DBA/1 mice with an emulsion of complete Freund's adjuvant (CFA) and type II collagen (CII), and typically, the first signs of arthritis appear in 21-28 days after immunization (Brand et al., 2007). CIA shares several pathological features with human RA, and CII is a major protein in cartilage, the target tissue of RA. Pathological features include synovial hyperplasia, mononuclear cell infiltration, and cartilage degradation. Susceptibility in these mice is linked to the expression of specific MHC class II genes, DBA/1 have H-2^q haplotype.
P140 peptide was thus administrated intravenously to DBA/1 mice at day −1, +7, +14 and +20 in a setting close to the one we used in MRL/lpr mice ([…]). CII in CFA was injected at days+1 and +21 (200 μg, intradermal route). Mouse weight and their clinical score were followed using very classical procedure. Biological parameters were also evaluated (i.e. T cell response, antibody response, joint histology, etc).

[4] = system: peripheral T cells from lupus patients; conditions: cited from earlier work
[5] = system: Lewis rats; assay: Chronic-EAN rat model for CIDP; type: in vivo; conditions: P140 100 μg/rat i.p., vs untreated rats
Protocol: Male Lewis rats, 7-8 weeks old, weighing 250-270 g, purchased from Charles River (Domaine des Oncins, L'Arbresle, France) were used. To induce chronic-EAN (CIDP), rats were immunized with S-palm-P0(180-199) peptide by subcutaneous injection at the base of the tail of 200 μL of an inoculum containing 200 μg of peptide (Ac(palm)KRGRQTPVLYAMLDHSRS), and 0.5 mg of Mycobacterium tuberculosis (strain H37 RA, Difco, Detroit, Mich., USA) emulsified in 100 μL of saline solution and 100 μL of Freund's incomplete adjuvant (SIGMA-Aldrich, St-Quentin Fallavier, France).
Body weight and clinical scores are assessed daily until 60 days post-immunization (dpi). Severity of paresis is graded as follows: 0=no illness; 1=flaccid tail; 2=moderate paraparesis; 3=severe paraparesis; 4=tetraparesis; 5=death.
100 μg/rat P140 peptide in 500 μL water/saline (1:10) were intraperitoneally injected at 5, 7, 9, 13 dpi and 3 times per week from 22 dpi until the end of the study.

[6] = BIAcore, 25° C., 1:1 Langmuir model, global fit

In the case of CCC(C)[C@H](NC(=O)[C@H](Cc1ccccc1)NC(=O)[C@H](C)NC(=O)[C@H](Cc1ccc(O)cc1)NC(=O)CNC(=O)[C@H](CCCNC(=N)N)NC(=O)[C@@H]1CCCN1C(=O)[C@H](CCCCN)NC(=O)CNC(=O)[C@H](COP(=O)(O)O)NC(=O)[C@H](CCCNC(=N)N)NC(=O)[C@H](CCCCN)NC(=O)[C@H](CO)NC(=O)[C@H](Cc1ccc(O)cc1)NC(=O)[C@@H](NC(=O)[C@H](CCSC)NC(=N)[C@H](Cc1c[nH]cn1)NC(=O)[C@@H](NC(=O)[C@@H](N)CCCNC(=N)N)C(C)CC)C(C)C)C(=O)N[C@@H](CCC(=O)O)C(=O)N[C@@H](Cc1ccc(O)cc1)C(=O)O (stereo partly drawn) [Compound P140] (H-R[Ile(3ξ)][X1]VYSKR[pS]GKPRGYAF[Ile(3ξ)]EY-OH), the “Response rate (SRI-4)” value ([1]; Anti dsDNA+ European study population, placebo 48.8%) is reported as 71.1%, the “Response rate (SRI-4)” value ([1]; Anti dsDNA+ patients, full study population, 52 weeks, plus standard of care, placebo 47.3%) is reported as 61.5% and the “Patients in full remission” value ([1]; Anti dsDNA+ patients, none in the placebo group) is reported as 7.6%. The Tolerability ([1]; SLE patients, 52 weeks) was “well tolerated”, the Rmax ([2]; BIAcore, 25° C., 1:1 Langmuir model) was 83.3 RU and the KA [2, 6] was 144000 M⁻¹. The kd [2, 6] was 0.00312 s⁻¹, the kon ([2]; BIAcore, 25° C., 1:1 Langmuir model, global fit, read-out: ka) was 450 M⁻¹ s⁻¹ and the RI ([2]; peptide 1.56 μM) was 12.1 RU. It also gave a Req ([2]; peptide 1.56 μM) of 15.3 RU, a kobs ([2]; peptide 1.56 μM) of 0.00382 s⁻¹ and an RI ([2]; peptide 3.12 μM) of 20.9 RU. For the same molecule, the Req ([2]; peptide 3.12 μM) was 25.8 RU, the kobs ([2]; peptide 3.12 μM) was 0.00452 s⁻¹ and the RI ([2]; peptide 6.25 μM) was 33.8 RU. For the same molecule, the Req ([2]; peptide 6.25 μM) was 39.5 RU, the kobs ([2]; peptide 6.25 μM) was 0.00593 s⁻¹ and the RI ([2]; peptide 12.5 μM) was 62.5 RU. It also gave a Req ([2]; peptide 12.5 μM) of 53.6 RU, a kobs ([2]; peptide 12.5 μM) of 0.00874 s⁻¹ and an RI ([2]; peptide 25 μM) of 118 RU. For the same molecule, the Req ([2]; peptide 25 μM) was 65.2 RU, the kobs ([2]; peptide 25 μM) was 0.0144 s⁻¹ and the “CD4+ T splenocytes proliferation ex vivo in the presence of CII” value [3] was “strongly diminished”. The “Proliferation of peripheral T cells from lupus patients” value ([4]; ex vivo (Monneaux et al., 2005)) was “does not induce proliferation”, the “Secretion of regulatory cytokine IL-10 in cell cultures” value ([4]; ex vivo, T cells from lupus patients (Monneaux et al., 2005)) was “high levels” and the “Chronicity of the disease” value [5] was “seems abolish the chronicity of the disease”. The Maximal clinical scores [5] was “decreased the maximal clinical scores”, the “Onset of the disease” value [5] was “delayed the onset of the disease” and the “Weight loss during the disease course” value [5] was “less important”.
